Values quoted from earlier work as cited in patent US20200316072A1, “COMPOUNDS FOR USE IN REGULATING FOLLICLE MATURATION” (AARHUS UNIVERSITET, priority 2017, published 2020).

Test system: IGF/Akt/mTOR signaling pathway
Conditions: stated as prior knowledge on the DPP4 inhibitor; test system not given

Question: Which “phosphorylated protein expression of IGF/Akt/mTOR signaling pathway” value does the source give for `CC#CCn1c(N2CCC[C@@H](N)C2)nc2c1c(=O)n(Cc1nc(C)c3ccccc3n1)c(=O)n2C` [Linagliptin, 8-[(3R)-3-aminopiperidin-1-yl]-7-but-2-ynyl-3-methyl-1-[(4-methylquinazolin-2-yl)methyl]purine-2,6-dione] here?
Answer: The value was “alleviated”.
